Assay results as given in patent publication US20190298717A1 (BOARD OF REGENTS, THE UNIVERSITY OF TEXAS SYSTEM, priority 2016, published 2019).

Assays:
[1] = tested on: NMNAT-1, SIRT1, SIRT5 and COX-IV
Text: Data were normalized to actin. […] The intensity of the bands was normalized to actin. Data are mean±SEM of triplicate measurements.

[2] = target: Keap1-Nrf2 (Homo sapiens, UniProt Q14145); conditions: data not shown
[3] = tested on: SH-SY5Y cells; conditions: Aβ (1-42) 20 μM, 24 hour; 46% with Aβ alone
Protocol: Densitometry values were normalized against actin.
After 24 hour treatment, cell viability was measured using the cell titer glow luminescence assay.

[4] = tested on: SH-SY5Y cells
Text: (§1) Results are expressed as means±SD from three independent experiments. […] Cell lysates were then subjected to Western blot analysis.
(§2) A cell titer glow luminescence assay was used to measure cell cytotoxicity. […] LC3, microtubule-associated protein 1 light chain 3, which is a homologue of Apg8p essential for autophagy in yeast, is processed posttranslationally into LC3-I in cytosol. LC3-I is then converted into LC3-II, which associates with autophagosome membranes. The ratio of LC3-II/LC3-I determines the status of the autophagy process.

[5] = tested on: LC3; conditions: 0, 5, 10 μM, ± bafilomycin 20 nM, 4 hours
Text: as §1, §2

[6] = tested on: primary cortical neuronal cells; conditions: 0.1, 1, 10 μM, 1 μM rotenone, 24 hours
Protocol: (§3) The inventors first measured the cell proliferation to evaluate the stress caused by expression of tau fibrils in aggregate-positive and negative cells (FIG. 6A). […] The inventors also measured the concentration of superoxide ions (O2-), a detrimental byproduct of oxidative phosphorylation, as an ROS representative. […] The inventors next measured expression of Nrf2 and HO-1 in the same cells (FIG. 6C). […] Aggregate-positive and -negative KD cells were treated with 200 μM H2O2 for 24 h. Cytotoxicity was measured as release of LDH.
(§4) Cell Viability and Cytotoxicity Assay. Cell growth was analyzed using the MTT cell viability assay. Briefly, at the end of incubation/treatment, MTT reagent was diluted in culture medium and aliquoted into each well. After incubation for 2 hours, the medium was aspirated and DMSO was aliquoted into each well to disrupt the cells and dissolve the intracellular MTT dyes. Absorbance was read at 570 nm wavelength in a 96-well plate reader. Cell toxicity was detected using a LDH cell toxicity assay kit (Promega, Fitchburg Wis.). This is a coupled enzymatic assay that detects a visible color signal initially described by Nachlas et. al. The reagent contained excess concentrations of lactate and NAD+as substrates to drive the LDH reaction and produce NADH. In the presence of diaphorase, NADH drives the enzyme-catalyzed conversion of iodonitro-tetrazolium violet to a red formazan product. Briefly, DMEM medium was withdrawn from each well of the plate after treatment and briefly centrifuged to get rid of floating cells or cell debris. Then, the medium supernatant was mixed with equal volume of substrate/enzyme mixture included in the kit (lactate, NAD+, diaphorase and iodonitro-tetrazolium violet), followed by incubation at room temperature for 15 minutes before the addition of acetic acid to cease the reaction. The absorbance was read at 490 nm in a 96-well plate reader. […] Cell viability assay was performed using CellTiter-Glo assay.

[7] = tested on: HEK293 cells overexpressing tau residues 244 to 372, with mutations of P301L and V337M
Protocol: as §3, §4

[8] = tested on: GSH and GSSG; conditions: SH-SY5Y, 10 μM, 24 h
Protocol: GSH is regulated by the rate-limiting enzyme GCL consisted of GCLc and GCLm subunits. […] The inventors then used extracellular lactate dehydrogenase cytotoxicity assay to measure cell survival.
Measurement of GSH/GSSG. The intracellular GSH and GSSG content were determined using a GSH/GSSG-Glo Assay kit (Promega, Fitchburg Wis.) following the manufacturer's instructions. Briefly, after treatment, half of the cells were lysed using total lysis buffer and the other GSSG lysis buffer for 5 minutes. Luciferin generation reagents (luciferin-NT plus Glutathione-S-Transferase) were then added into each well, followed by incubation for 30 minutes. Finally, luciferin detection reagents including Ultra-Glo™ Luciferase were aliquoted into each well. After 10-minute incubation, luminescence was read in a 96-well plate reader. GSH level was calculated by subtracting GSSG level from the total, and GSH/GSSG ratio was calculated as ([Total]−[GSSG])/[GSSG].

[9] = tested on: Nrf2 and HO-1
Protocol: as §3
Western Blot Analysis. Protein expression was determined by Western blot analysis. Equal amount of protein from each sample was run in Tris-glycine SDS PAGE gel, followed by transferring to PVDF membrane. After blocking the membrane with 5% milk for 1 hour at room temperature, the membrane was incubated further for 2 hours with antibodies specific for target proteins: Nrf2, pNrf2(S40) from Novus (Littleton, Colo.); Keap1, HO-1, NQO1, GCLc, GCLm and lamin B1 from Cell Signaling (Danvers, Mass.); GAPDH from Santa Cruz (Dallas, Tex.); β-Actin from Thermo Fisher (Waltham, Mass.). The membrane was subsequently incubated with species-specific HRP-conjugated secondary antibody followed by incubation with chemiluminescence substrate and imaging. The band intensity of each of the target proteins was quantified using ImageQuant software (GE Healthcare, Sweden). Western blot analysis on worm lystaes was done similarly. […] Equal amounts of protein were run on the gel and SKN-1 protein level was detected using anti-GFP antibody.

[10] = tested on: GSK3β and Tau; test: p-GSK3β and p-Tau in Aβ (1-42) treated primary neurons; conditions: 1 μM, 24 hours
Protocol: Cells were transfected with tdTomato (red) plasmid to visualize structural and morphological changes of neurons. Nuclei were stained with DAPI (blue) scale bar=10 μm. […] Densitometry values were normalized using actin as an internal control.
Immunofluorescence assays were performed and the phosphorylation status of GSK3β and Tau proteins were analyzed in primary cells using pGSK3β (S9) and pTau (S396) antibodies. Primary cortical neurons were isolated from the cortex of 0 day pups, cultured for two weeks, and were transfected with tdTomato plasmid to visualize structural and morphological changes of neurons. […] At the end of the treatment cells were fixed and immunostained with respective antibodies.

[11] = tau aggregate cells treated with 0, 10, 20 μM (FIG. 6C), comparator not stated

Sequence of Keap1-Nrf2 (Q14145 whole entry): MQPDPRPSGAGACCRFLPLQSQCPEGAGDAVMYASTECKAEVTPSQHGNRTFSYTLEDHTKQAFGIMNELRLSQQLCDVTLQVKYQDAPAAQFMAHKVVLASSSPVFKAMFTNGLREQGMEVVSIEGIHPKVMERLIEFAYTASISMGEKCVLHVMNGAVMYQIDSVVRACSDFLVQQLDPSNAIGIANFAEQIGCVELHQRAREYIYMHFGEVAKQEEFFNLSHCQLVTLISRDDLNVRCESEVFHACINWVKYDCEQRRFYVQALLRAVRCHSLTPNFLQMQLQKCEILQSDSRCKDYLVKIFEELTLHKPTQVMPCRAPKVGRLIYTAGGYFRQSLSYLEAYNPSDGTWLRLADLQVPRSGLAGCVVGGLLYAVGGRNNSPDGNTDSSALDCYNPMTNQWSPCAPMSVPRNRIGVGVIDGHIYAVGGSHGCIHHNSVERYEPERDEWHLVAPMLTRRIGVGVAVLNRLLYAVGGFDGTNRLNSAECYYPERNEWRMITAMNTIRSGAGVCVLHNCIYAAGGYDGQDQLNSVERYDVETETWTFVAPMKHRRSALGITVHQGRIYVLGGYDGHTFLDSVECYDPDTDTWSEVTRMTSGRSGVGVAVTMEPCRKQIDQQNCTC

In the case of `NNc1nncc2ccccc12` [Hydralazine], the “transcription level of NMNAT-1, SIRT1, SIRT5 (qRT-PCR)” value ([1]; 20 μM, 12 hours) is reported as “increased the transcription level”, the “NMNAT-1, SIRT1, SIRT5 protein (Western blot)” value ([1]; 10 and 20 μM) is reported as “up-regulated at the protein level” and the “level of COX-IV” value ([1]; after 48 hours) is reported as “significant increase”. The “direct binding and interruption of Keap1-Nrf2 interaction” value [2] was “ruled out the direct binding hypothesis”, the “cells surviving Aβ (1-42) peptide treatment” value [3] was 70-80% and the “protection against oxidative stress under proteasomal inhibition by MG132” value ([4]; MG132 10 μM, H2O2 100 μM, 4 hours) was “does not have an impact”. The “protection against oxidative stress under autophagy inhibition with bafilomycin” value ([4]; bafilomycin 20 nM, H2O2 100 μM, 4 hours) was “significantly reduces the ability of hydralazine to protect cells”, the “concentration at which no toxicity was observed” value ([4]; human, 48 h) was “up to 25 μM” and the “concentration with significant decrease in cell viability compared to control” value ([4]; human, 48 h) was no less than 50 µM. For the same compound, the “ratio of LC3-II/LC3-I” value [5] was “increase in the ratio of LC3-II/LC3-I”, the “viability of primary neuronal cells under rotenone” value [6] was “rescues primary neuronal cells from rotenone toxicity in a dose-dependent manner” and the “cell viability under rotenone” value ([7]; 20 μM, 1 μM rotenone, 24 h) was “protects both aggregate-positive and negative cells”. For the same compound, the “cell viability in Nrf2 KD cell line” value ([7]; Nrf2 knockdown tau cells) was “did not improve cell viability”, the “cell growth of aggregate-positive cells” value ([7]; tau aggregate-positive HEK293) was “improved” and the “GSH/GSSG ratio, higher” value [8] was 5%. For the same compound, the “intracellular GSH” value [8] was “increased GSH”, the “Nrf2 expression with hydralazine and rotenone compared to rotenone only” value ([9]; aggregate-positive cells, 20 μM, 1 μM rotenone, 24 h) was “higher” and the HO-1 expression increase [9, 11] was roughly 25%. For the same compound, the “Nrf2 expression, higher” value [9, 11] was 1.5 fold, the “pGSK3β (S9) in primary cells” value [10] was “marked increase” and the “pTau in primary cells” value [10] was “reduced level of pTau”.
